# Laboratory results taken from patent US9089605B2, “Quinone derivatives, pharmaceutical compositions, and uses thereof” (Indiana University Research and Technology Corporation, priority 2007, dated 2015).
# Several values for one entry are separate records, joined by “and”; a condition that tells them apart may be missing. Identical values can stand only once. Entries after “also recorded” stand apart in the source; their conditions may differ.
# How the values were obtained:
# Ape1 = Ape1 (Homo sapiens, UniProt P27695); assay: Enzymatic redox assay (EMSA, AP-1 DNA binding); format: biochemical; conditions: EMSA, reduced Ape1, oxidized nuclear extracts (Hey-C2 cells), AP-1 DNA probe
# cells = assay: Growth inhibition assay (MTS); format: cell-based; conditions: for GI50: MTS, compound treatment 24 or 72 h, read-out: Cell Killing (GI50)
# Procedure: Growth inhibitory data was also collected for all the compounds tested in the redox assay. Following the procedure of Fishel et al, cells were aliquoted into 96 well plates at a concentration of 2-4,000 cells/well in triplicate and allowed to adhere overnight. Cells were then treated with compound for either 24 or 72 h. 3-(4-5-Dimethylthiazol-2-yl)-5-(3-carboxymethoxyphenyl)-2-(4-sulfophenyl)-2H-tetrazolium salt (MTS) was added to the cells following compound treatment and the cells were incubated for an additional 4 hours at 37° C. After incubation with MTS the plates were measured for absorbance at 490 nm. The values were standardized to wells containing media alone.
# [1] = Qualitative solubility in solvents; format: physicochemical; conditions: listed solvents
# avidin = avidin (Gallus gallus, UniProt P02701); conditions: cited from earlier work
# avidin, sequence (P02701 25-152, species assumed): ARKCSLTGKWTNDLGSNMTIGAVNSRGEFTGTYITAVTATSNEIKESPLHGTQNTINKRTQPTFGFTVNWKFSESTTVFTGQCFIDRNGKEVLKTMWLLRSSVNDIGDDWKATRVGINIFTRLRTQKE
# Ape1, sequence (P27695 whole entry): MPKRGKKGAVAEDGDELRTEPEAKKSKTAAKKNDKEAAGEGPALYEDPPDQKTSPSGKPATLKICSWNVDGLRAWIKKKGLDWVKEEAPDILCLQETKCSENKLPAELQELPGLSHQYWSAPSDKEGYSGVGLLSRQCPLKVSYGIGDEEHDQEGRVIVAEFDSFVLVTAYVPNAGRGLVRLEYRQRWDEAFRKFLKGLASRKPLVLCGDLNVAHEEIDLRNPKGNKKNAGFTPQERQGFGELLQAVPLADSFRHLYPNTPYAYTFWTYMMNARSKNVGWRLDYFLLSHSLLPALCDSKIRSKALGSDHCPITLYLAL
SMILES,IC50 (Ape1),melting point,GI50 (cells) [µM],"cell-based activity superior to the methyl derivative 10b, factor (cells; GI50 ratio)",solubility (qualitative) [1],avidin binding weaker than biotin (avidin),solubility (qualitative) ([1]; listed as 93)
"COC1=C(OC)C(=O)C(/C=C(\C)C(=O)O)=C(C)C1=O [Compound 10b, (E)-3-(4,5-dimethoxy-2-methyl-3,6-dioxocyclohexa-1,4-dienyl)-2-methylpropenoic acid]",3 to 15 µM and 3 µM,134 to 136 °C,130,,,,
"CCCC/C(=C\C1=C(C)C(=O)C(OC)=C(OC)C1=O)C(=O)O [Compound 10e, (E)-3-(4,5-dimethoxy-2-methyl-3,6-dioxocyclohexa-1,4-dienyl)-2-butylpropenoic acid]",3 to 15 µM and 15 µM,54 to 55 °C,85,,,,
"COC1=C(OC)C(=O)C(/C=C(\C)C(=O)O)=C(Cl)C1=O [Compound 23, (E)-3-(2-chloro-4,5-dimethoxy-3,6-dioxocyclohexa-1,4-dienyl)-2-methylpropenoic acid]",2.5 µM,183 to 185 °C,45,3,,,
"CC1=C(/C=C(\C)C(=O)O)C(=O)c2ccccc2C1=O [Compound 35a, (E)-3-(3-methyl-1,4-naphthoquinon-2-yl)-2-methylpropenoic acid]",15 µM,195 to 196 °C,45,,,,
"CCCC/C(=C\C1=C(C)C(=O)c2ccccc2C1=O)C(=O)O [Compound 35b, (E)-3-(3-methyl-1,4-naphthoquinon-2-yl)-2-butylpropenoic acid]",25 µM,119 to 121 °C,40,,,,
"CCC/C(=C\C1=C(Br)C(=O)c2ccccc2C1=O)C(=O)O [Compound 39b, (E)-3-(3-bromo-1,4-naphthoquinon-2-yl)-2-propylpropenoic acid]",,145 °C (dec.),,,,,
"C/C(=C\C1=C(Cl)C(=O)c2ccccc2C1=O)C(=O)O [Compound 43a, (E)-3-(3-chloro-1,4-naphthoquinon-2-yl)-2-methylpropenoic acid]",1 µM,229 to 230 °C,15,,,,
"CCC/C(=C\C1=C(Cl)C(=O)c2ccccc2C1=O)C(=O)O [Compound 43b, (E)-3-(3-chloro-1,4-naphthoquinon-2-yl)-2-propylpropenoic acid]",,164 °C (dec.),,,,,
"COC1=C(/C=C(\C)C(=O)O)C(=O)c2ccccc2C1=O [Compound 55, (E)-3-(3-methoxy-1,4-naphthoquinon-2-yl)-2-methylpropenoic acid]",0.5 µM,205 °C (dec.),40,,,,
"O=C(O)CCCC[C@H]1[C@H]2NC(=O)N[C@H]2CS1(=O)=O [Compound 89, 5-((1R,5S,6S)-3,7,7-trioxo-7-thia-2,4-diazabicyclo[3.3.0]oct-6-yl)pentanoic acid]",,255 °C,,,"Insoluble in CH2Cl2, acetone, MeOH, water; also recorded: Soluble in DMSO and NaOH aq",approximately 3 fold,
"CC(C)(C)OC(=O)NCCCCCCNC(=O)CCCC[C@H]1[C@H]2NC(=O)N[C@H]2CS1(=O)=O [Compound 110, N—(N′-tert-butoxycarbonyl-6-aminohexyl)-5-((1R,5S,6S)-3,7,7-trioxo-7-thia-2,4-diazabicyclo[3.3.0]oct-6-yl)pentanamide]",,213 to 215 °C,,,"Insoluble: CH2Cl2, acetone, NaOH aq; also recorded: Mildly Soluble MeOH, EtOH; also recorded: Soluble: DMSO",,
"C[C@@H]1NC(=O)N[C@@H]1CCCCCC(=O)NCCCCCCNC(=O)OC(C)(C)C [Compound 111, N—(N′-tert-butoxycarbonyl-6-aminohexyl)-6-[(4R,5S)-5-methyl-imidazolidin-2-on-4-yl]hexanamide]",,,,,"Insoluble: EtOAc, Et2O, H2O, NaOH aq; also recorded: Soluble: acetone, CH2Cl2",,
"C[C@@H]1NC(=O)N[C@@H]1CCCCCC(=O)O [Desthiobiotin, 6-[(4R,5S)-5-methyl-imidazolidin-2-on-4-yl]hexanoic acid, reference compound]",,,,,,,"Insoluble: CH2Cl2, H2O, acetone; also recorded: Soluble: NaOH aq"

# Second part, led by results:
IC50 (Ape1),melting point,SMILES,GI50 (cells) [µM],"cell-based activity superior to the methyl derivative 10b, factor (cells; GI50 ratio)",solubility (qualitative) [1],avidin binding weaker than biotin (avidin),solubility (qualitative) ([1]; listed as 93)
1 µM,195 to 196 °C,"CSC1=C(/C=C(\C)C(=O)O)C(=O)c2ccccc2C1=O [Compound 58, (E)-3-(3-methylsulfanyl-1,4-naphthoquinon-2-yl)-2-methylpropenoic acid]",30,,,,
10 µM,147 to 148 °C,"COCC/C(=C\C1=C(C)C(=O)c2ccccc2C1=O)C(=O)O [Compound 62a, (E)-3-(3-methyl-1,4-naphthoquinon-2-yl)-2-methoxyethylpropenoic acid]",30,,,,
0.5 µM,168 to 172 °C,"COCC/C(=C\C1=C(Br)C(=O)c2ccccc2C1=O)C(=O)O [Compound 62b, (E)-3-(3-bromo-1,4-naphthoquinon-2-yl)-2-methoxyethylpropenoic acid]",25,,,,
3 µM,160 °C (dec.),"COCC/C(=C\C1=C(Cl)C(=O)c2ccccc2C1=O)C(=O)O [Compound 62c, (E)-3-(3-chloro-1,4-naphthoquinon-2-yl)-2-methoxyethylpropenoic acid]",30,,,,
10 µM,104 to 106 °C,"COCC/C(=C\C1=C(C)C(=O)C(OC)=C(OC)C1=O)C(=O)O [Compound 64, (E)-3-(4,5-dimethoxy-2-methyl-3,6-dioxocyclohexa-1,4-dienyl)-2-methoxyethylpropenoic acid]",200,,,,
5 µM,156 to 157 °C,"O=C(O)CCC1=C(Br)C(=O)c2ccccc2C1=O [Compound 69a, 3-(3-Bromo-1,4-naphthoquinon-2-yl)-propionic acid]",15,,,,
1.5 µM,166 to 169 °C,"C/C(=C/C1=C(Cl)C(=O)c2ccccc2C1=O)C(=O)O [Compound Z-43a, (2Z)-3-(3-chloro-1,4-naphthoquinon-2-yl)-2-methylpropenoic acid]",30,,,,
